According to patent US6413967B1, “Inhibition of novel calcium entry pathway in electrically non-excitable cells acting as an anti-proliferative therapy” (The University of Virginia Patents Foundation, priority 1995, dated 2002):

System: human PBMC
Assay: lymphocyte proliferation, 3H-thymidine incorporation
Format: cell-based
Method: Human PBMC were isolated from peripheral blood obtained from healthy donors. Cells were washed twice and were placed in triplicate wells at a concentration of 1×10^5 cells/ml in serum-free RPMI-1640 supplemented with 100 U of both penicillin and streptomycin. Drug treatments were added 15 minutes before stimulation of the cells and were present throughout the 1 hour stimulation period. Stimulation by mitogen (1 μg/ml PHA) in combination with 10 nM phorbol dibutyrate (PDB) was carried out for 1 hour at 37° C. Cells were subsequently washed 3 times with RPMI and were resuspended at a concentration of 1×10^5 cells/ml in RPMI-1640 supplemented with 5% FBS and 100 U/ml of penicillin and 100 μg/ml streptomycin. For the 48 hour proliferation phase, cells were cultured with (Ca^2+-independent proliferation) or without (Ca^2+-dependent proliferation) 10 nM PDB. 1 μCi of [^3H]-Thymidine (6.7 Ci/mmol; New England Nuclear, Boston, Mass.) was added to each well for the final 16 hours of the assay and at 48 h the cells were harvested and incorporated ^3H was counted by liquid scintillation counting.

## CC(Cc1ccc(O)c(O)c1)C(C)Cc1ccc(O)c(O)c1 (stereo not drawn) [NDGA, 4,4′-(2,3-dimethyl-1,4-butanediyl)bis[1,2-benzenediol]]
Ca^2+-dependent protocol (PHA/PDB 1 h, then medium 48 h), n=6, read-out: IC50 for inhibition of proliferation
  IC50: ~3 µM
PHA/PDB 1 h then PDB 48 h
  effect on Ca^2+-independent proliferation: no effect
PHA/PDB 1 h then medium alone 48 h
  effect on Ca^2+-dependent proliferation: inhibited proliferation
